According to US10493077B2, “Fused imidazo-piperidine JAK inhibitor compound” (THERAVANCE BIOPHARMA R&D IP, LLC, priority 2017, dated 2019):
Read-outs that look alike come from different tables or passages of the source.

Tests used:
[1] = tested on: IL-13 induced STAT6 phosphorylation in BEAS-2B human lung epithelial cells; experiment: Cellular JAK potency assay: inhibition of IL-13 (AlphaScreen, BEAS-2B); assay type: cell-based
Experimental: The AlphaScreen JAK1 cellular potency assay was carried out by measuring interleukin-13 (IL-13, R&D Systems) induced STAT6 phosphorylation in BEAS-2B human lung epithelial cells (ATCC). The anti-STAT6 antibody (Cell Signaling Technologies) was conjugated to AlphaScreen acceptor beads (Perkin Elmer), while the anti-pSTAT6 (pTyr641) antibody (Cell Signaling Technologies) was biotinylated using EZ-Link Sulfo-NHS-Biotin (Thermo Scientific).
BEAS-2B cells were grown at 37° C. in a 5% CO2 humidified incubator in 50% DMEM/50% F-12 medium (Life Technologies) supplemented with 10% FBS (Hyclone), 100 U/mL penicillin, 100 μg/mL streptomycin (Life Technologies), and 2 mM GlutaMAX (Life Technologies). On day 1 of the assay, cells were seeded at a 7,500 cells/well density in white poly-D-lysine-coated 384-well plates (Corning) with 25 μL medium, and were allowed to adhere overnight in the incubator. […] After a minimum of 2 h incubation, the assay plates were read on the EnVision plate reader. AlphaScreen luminescence signals were recorded and utilized to calculate the percent inhibition values based on DMSO and background controls.
For dose-response analysis, percent inhibition data were plotted vs. compound concentrations, and IC50 values were determined from a 4-parameter robust fit model with the Prism software. Results may also be expressed as the negative logarithm of the IC50 value, pIC50.

[2] = Lung and plasma pharmacokinetics in mice; assay type: in vivo, mouse; details: BALB/c mice, Form 1 suspension 0.1 mg/mL, 50 μL by oral aspiration
Experimental: Plasma and lung concentrations of compound 1 and ratios thereof were determined in the following manner. BALB/c mice from Charles River Laboratories were used in the assay. Compound 1 Form 1 of example 2 was formulated in 0.01% Tween 80 in normal saline (0.9% sodium chloride in water) at a concentration of 0.1 mg/mL as a suspension. 50 μL of the suspension formulation was introduced into the trachea of a mouse by oral aspiration. At various time points (0.083, 1, 4, 24, 48, 72, and 96 hr). Post dosing, blood samples were removed via cardiac puncture and intact lungs were excised from the mice. Blood samples were centrifuged (Eppendorf centrifuge, 5804R) for 4 minutes at approximately 12,000 rpm at 4° C. to collect plasma. Lungs were padded dry, weighed, and homogenized at a dilution of 1:3 in sterile water. Plasma and lung concentrations of compound 1 were determined by LC-MS analysis against analytical standards constructed into a standard curve in the test matrix. […] The lung half-life was calculated at approximately 40 hours. The lung to plasma ratio was determined as the ratio of the lung AUC in μg hr/g to the plasma AUC in μg hr/mL (where AUC is conventionally defined as the area under the curve of test compound concentration vs. time).

ALK = molecular target: T1, ALK (Homo sapiens, UniProt Q9UM73); experiment: Kinome screen, ALK; assay type: binding; details: screened at 1 μM
T1 construct: made in house; host or cells: T7 phage in E. coli (BL21-derived) or HEK-293
Experimental: (§1) Kinase-tagged T7 phage strains were grown in parallel in 24-well blocks in an E. coli host derived from the BL21 strain. E. coli were grown to log-phase and infected with T7 phage from a frozen stock (multiplicity of infection=0.4) and incubated with shaking at 32° C. until lysis (90-150 minutes). The lysates were centrifuged (6,000×g) and filtered (0.2 μm) to remove cell debris. The remaining kinases were produced in HEK-293 cells and subsequently tagged with DNA for qPCR detection.
(§2) Streptavidin-coated magnetic beads were treated with biotinylated small molecule ligands for 30 minutes at room temperature to generate affinity resins for kinase assays. The liganded beads were blocked with excess biotin and washed with blocking buffer (SeaBlock (Pierce), 1% BSA, 0.05% Tween 20, 1 mM DTT) to remove unbound ligand and to reduce non-specific phage binding. […] Test compounds were prepared as 40× stocks in 100% DMSO and directly diluted into the assay. All reactions were performed in polypropylene 384-well plates in a final volume of 0.04 ml. […] The beads were then re-suspended in elution buffer (1×PBS, 0.05% Tween 20, 0.5 μM non-biotinylated affinity ligand) and incubated at room temperature with shaking for 30 minutes. The kinase concentration in the eluates was measured by qPCR.

SYK = molecular target: T2, SYK (Homo sapiens, UniProt P43405); experiment: Kinome screen, SYK; assay type: binding; details: screened at 1 μM
T2 construct: made in house; host or cells: T7 phage in E. coli (BL21-derived) or HEK-293
Experimental: as §1, §2

[3] = tested on: BEAS-2B human lung epithelial cells; experiment: CellTiter-Glo cell viability/cytotoxicity assay; assay type: cell-based; details: BEAS-2B cells, 48 h, concentration at 15% inhibition threshold
Experimental: A CellTiter-Glo luminescent cell viability/cytotoxicity assay was carried out in BEAS-2B human lung epithelial cells (ATCC) under the normal growth condition.
Cells were grown at 37° C. in a 5% CO2 humidified incubator in 50% DMEM/50% F-12 medium (Life Technologies) supplemented with 10% FBS (Hyclone), 100 U/mL penicillin, 100 μg/mL streptomycin (Life Technologies), and 2 mM GlutaMAX (Life Technologies). On day 1 of the assay, cells were seeded at a 500 cells/well density in white 384-well tissue culture plates (Corning) with 25 μL medium, and were allowed to adhere overnight in the incubator. On day 2 of the assay, 5 μL of medium containing dose-responses of test compounds was added, and incubated at 37° C. for 48 h. 30 μL of CellTiter-Glo detection solution (Promega) was subsequently added, mixed on an orbital shaker for 5 min, and incubated for additional 10 min before being read on the EnVision reader. Luminescence signals were recorded and percent DMSO control values were calculated.
For dose-response analysis, percent DMSO control data were plotted vs. compound concentrations to derive dose-response curves by line connecting each data point. The concentration at which each curve crosses the 15% inhibition threshold is defined as CC15.

T1 sequence (Q9UM73 19-1620): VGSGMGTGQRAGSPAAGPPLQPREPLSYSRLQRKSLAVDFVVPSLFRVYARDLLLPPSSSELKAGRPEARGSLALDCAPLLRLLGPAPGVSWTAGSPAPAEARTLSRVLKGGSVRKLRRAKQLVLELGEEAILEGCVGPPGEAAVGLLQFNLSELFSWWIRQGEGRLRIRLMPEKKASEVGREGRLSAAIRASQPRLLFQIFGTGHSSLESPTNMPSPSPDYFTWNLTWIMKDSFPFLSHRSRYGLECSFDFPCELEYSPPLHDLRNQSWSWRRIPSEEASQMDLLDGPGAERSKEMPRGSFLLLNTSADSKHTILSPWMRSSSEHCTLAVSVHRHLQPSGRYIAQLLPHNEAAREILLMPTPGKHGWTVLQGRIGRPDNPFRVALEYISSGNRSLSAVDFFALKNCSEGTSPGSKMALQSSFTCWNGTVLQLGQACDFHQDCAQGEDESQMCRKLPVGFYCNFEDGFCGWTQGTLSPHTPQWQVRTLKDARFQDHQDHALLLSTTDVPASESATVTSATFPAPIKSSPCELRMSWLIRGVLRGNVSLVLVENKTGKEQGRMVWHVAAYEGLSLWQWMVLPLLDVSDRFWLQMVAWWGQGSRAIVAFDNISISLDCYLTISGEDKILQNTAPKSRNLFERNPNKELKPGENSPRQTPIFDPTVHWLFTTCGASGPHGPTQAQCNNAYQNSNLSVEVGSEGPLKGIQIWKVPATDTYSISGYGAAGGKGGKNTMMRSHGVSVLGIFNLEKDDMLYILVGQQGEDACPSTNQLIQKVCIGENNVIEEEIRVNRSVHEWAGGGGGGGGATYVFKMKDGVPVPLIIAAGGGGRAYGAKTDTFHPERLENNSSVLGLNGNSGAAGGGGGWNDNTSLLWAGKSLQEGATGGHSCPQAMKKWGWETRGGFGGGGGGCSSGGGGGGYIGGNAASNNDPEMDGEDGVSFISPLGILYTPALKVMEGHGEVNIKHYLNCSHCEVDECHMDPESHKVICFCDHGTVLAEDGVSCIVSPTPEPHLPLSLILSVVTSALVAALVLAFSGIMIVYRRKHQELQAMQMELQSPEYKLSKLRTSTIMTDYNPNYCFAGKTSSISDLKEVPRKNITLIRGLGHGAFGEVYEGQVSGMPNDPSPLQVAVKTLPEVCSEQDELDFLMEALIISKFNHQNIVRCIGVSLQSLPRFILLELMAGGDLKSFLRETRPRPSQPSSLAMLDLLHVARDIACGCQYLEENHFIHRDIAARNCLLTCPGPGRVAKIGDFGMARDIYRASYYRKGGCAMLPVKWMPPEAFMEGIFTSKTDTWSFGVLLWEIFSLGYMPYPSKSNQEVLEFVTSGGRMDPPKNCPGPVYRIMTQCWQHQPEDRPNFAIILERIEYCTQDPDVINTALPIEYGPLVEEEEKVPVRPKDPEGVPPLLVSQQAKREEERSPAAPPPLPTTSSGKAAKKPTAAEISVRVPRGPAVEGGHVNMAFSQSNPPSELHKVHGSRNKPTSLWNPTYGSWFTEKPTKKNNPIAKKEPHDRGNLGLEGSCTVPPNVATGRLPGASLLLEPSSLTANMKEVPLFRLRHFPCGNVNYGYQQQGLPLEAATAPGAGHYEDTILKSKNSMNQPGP

## CCc1cc(O)c(F)cc1-c1cc(F)c2c(-c3nc4c([nH]3)CCN(C(=O)CN3CCOCC3)C4)n[nH]c2c1 [Compound 1, 1-(2-(6-(2-ethyl-5-fluoro-4-hydroxyphenyl)-4-fluoro-1H-indazol-3-yl)-1,4,6,7-tetrahydro-5H-imidazo[4,5-c]pyridin-5-yl)-2-morpholinoethan-1-one]
[1]; Assay 2, BEAS-2B cells, read-out: IC50 for inhibition of IL-13
  IC50: 13 nM
[1]; BEAS-2B cells, read-out: pIC50, inhibition of IL-13 induced STAT6 phosphorylation (converted)
  IC50: 12.6 nM
[2]
  lung AUC (0-96 hr): 360 µg·h/g
[2]; mouse, lung and plasma, 5 μg/mouse, read-out: lung to plasma AUC ratio
  Kp: 1780
[2]; mouse, lung, 5 μg/mouse
  half-life: ~40 h
ALK
  inhibition at 1 µM: 75%
SYK
  inhibition at 1 µM: 46%
[3]
  CC15: 3160 nM
